Reference: US20110092448A1, “Peptide Conjugate for Oral Delivery of Hydrophilic Peptide Analgesics” (METABOLIC PHARMACEUTICALS LIMITED, priority 2005, published 2011)
Read-outs that look alike come from different tables or passages of the source.

Assays:
[1] = test system: blood calcium levels in normal CD-1 mice; experiment: Blood (serum) calcium levels in normal mice after EP-PTH; format: in vivo, mouse; conditions: oral gavage 40, 200 or 400 μg/kg, 1 h
Experimental: (§1) EP-PTH was administered orally to normal mice and the anabolic action on blood calcium levels were measured. More specifically, after an initial blood sampling at time zero, groups of normal CD-1 mice were administered EP-PTH via either oral gavage (40 μg/kg, 200 μg/kg or 400 μg/kg) or subcutaneous injection (40 μg/kg) as described in Example 3. One hour after the administration of the EP-PTH and a second blood sample was taken. The serum calcium levels of blood samples were then assessed by an enzymatic method.
(§2) The person skilled in the art will understand that the method of estimating oral availability by identifying an oral dose response curve in a pharmacodynamic animal experiment and comparing with the parenterally administered dose response curve may be used in assessing the application of the invention to other parent peptides.

[2] = as above; format: in vivo, mouse; conditions: mouse, serum; CD-1 mice, oral vs subcutaneous; read-out: oral bioavailability based on pharmacodynamic measurements
Experimental: as §1, §2

[3] = cited from earlier work
[4] = test system: STZ diabetic Sprague-Dawley rats with neuropathic pain; conditions: rat, in vivo, po

## CC[C@H](C)[C@H](NC(=O)[C@H](CCC(=O)O)NC(=O)[C@H](CO)NC(=O)[C@@H](NC(=O)[C@H](CO)NC(=O)[C@H](CCC(N)=O)NC(=O)[C@@H](NC(=O)[C@@H](NC(=O)[C@H](CCCNC(=N)N)NC(=O)[C@@H](N)CC(C)C)[C@@H](C)CC)C(C)C)C(C)C)C(=O)N[C@@H](CCC(N)=O)C(=O)N[C@@H](CC(C)C)C(=O)N[C@@H](CCSC)C(=O)N[C@@H](Cc1c[nH]cn1)C(=O)N[C@@H](CC(N)=O)C(=O)N[C@@H](CC(C)C)C(=O)NCC(=O)N[C@@H](CCCCN)C(=O)N[C@@H](Cc1c[nH]cn1)C(=O)N[C@@H](CC(C)C)C(=O)N[C@@H](CC(N)=O)C(=O)N[C@@H](CO)C(=O)N[C@@H](CCSC)C(=O)N[C@@H](CCC(=O)O)C(=O)N[C@@H](CCCNC(=N)N)C(=O)N[C@H](C(=O)N[C@@H](CCC(=O)O)C(=O)N[C@@H](Cc1c[nH]c2ccccc12)C(=O)N[C@@H](CC(C)C)C(=O)N[C@@H](CCCNC(=N)N)C(=O)N[C@@H](CCCCN)C(=O)N[C@@H](CCCCN)C(=O)N[C@@H](CC(C)C)C(=O)N[C@@H](CCC(N)=O)C(=O)N[C@@H](CC(=O)O)C(=O)N[C@H](C(=O)N[C@@H](Cc1c[nH]cn1)C(=O)N[C@@H](CC(N)=O)C(=O)N[C@@H](Cc1ccccc1)C(=O)O)C(C)C)C(C)C [EP-PTH]
[1]
  effect on blood calcium levels compared to vehicle control: dose-dependent effect
[2]
  bioavailability: ~10%

## AOD9604: AOD peptide derived from the C-terminal sequence of human growth hormone, earlier applications (YLRIVQCRSVEGSCGF)
[3]; earlier applications PCT/AU98/00724, PCT/AU01/00354, PCT/AU00/01362
  oral bioavailability: substantially orally bioavailable

## Tyr-Leu-Arg-Ile-Val-Gly-Cys-Cys-Ser-Asp-Pro-Arg-Cys-Asn-Tyr-Asp-His-Pro-Glu-Ile-Cys-NH2 [ACV3.2]
[4]
  oral availability: substantial oral availability
[4]; 1 mg/kg
  analgesic effect vs vehicle group: significant difference

## parathyroid hormone: hormone known to regulate levels of blood calcium; parent peptide of EP-PTH
[3]; reported
  oral bioavailability: about 0.3%
